Test results reported in patent US9278958B2, “Anti-cancer compounds” (KATHOLIEKE UNIVERSITEIT LEUVEN, priority 2012, dated 2016).
Where two headings read alike, the source gives them in different places.

Experiments:
[1] = tested on: CEM cells; experiment: Cytostatic assay, CEM; format: cell-based; details: Homo sapiens, CCRF-CEM
Procedure: (§1) To each well of a 96-well microtiter plate were added 5-7.5×10^4 cells and a given amount of the test compound. The cells were allowed to proliferate for 48 h to 96 h (depending on the nature of the cell line) at 37° C. in a humidified CO2-controlled atmosphere. At the end of the incubation period, the cells were counted in a Coulter Counter (Coulter Electronics Ltd, Harpenden Herts, United Kingdom).

[2] = tested on: Molt4/C8 cells; experiment: Cytostatic assay, Molt4/C8; format: cell-based; details: Table 2
Procedure: as §1

[3] = tested on: Sup T1 cells; experiment: Cytostatic assay, Sup T1; format: cell-based; details: Homo sapiens, Table 2, read-out: Cytostatic activity (μM) Sup T 1
Procedure: as §1

[4] = tested on: MT-2 cells; experiment: Cytostatic assay, MT-2; format: cell-based; details: Homo sapiens, MT2; Table 2
Procedure: as §1

[5] = tested on: C8166 cells; experiment: Cytostatic assay, C8166; format: cell-based; details: Homo sapiens, Table 2
Procedure: as §1

[6] = tested on: HUT-78 cells; experiment: Cytostatic assay, HUT-78; format: cell-based; details: Homo sapiens, HuT78; Table 2
Procedure: as §1

[7] = tested on: MT-4 cells; experiment: Cytostatic assay, MT-4; format: cell-based; details: Homo sapiens, MT4; Table 2
Procedure: as §1

[8] = tested on: HL60, human leukemia cells; experiment: Cytostatic assay, HL-60; format: cell-based; details: Table 2
Procedure: as §1

[9] = tested on: U937, human monocytic cells; experiment: Cytostatic assay, U937; format: cell-based; details: U-937, Table 2
Procedure: as §1

[10] = tested on: THP-1, human monocytic cells; experiment: Cytostatic assay, THP-1; format: cell-based; details: Table 2
Procedure: as §1

[11] = tested on: Raji, human B-lymphoma cells; experiment: Cytostatic assay, Raji; format: cell-based; details: Table 2
Procedure: as §1

[12] = tested on: L1210 cells; experiment: Cytostatic assay, L1210; format: cell-based; details: Mus musculus, Table 2
Procedure: as §1

[13] = tested on: OST TK- osteosarcoma cells; experiment: Cytostatic assay, OST TK-; format: cell-based; details: Homo sapiens; Table 3
Procedure: as §1

[14] = tested on: MCF-7 mammary carcinoma cells; experiment: Cytostatic assay, MCF-7; format: cell-based; details: Homo sapiens, MCF7; Table 3
Procedure: as §1

[15] = tested on: FM3A mammary carcinoma cells; experiment: Cytostatic assay, FM3A; format: cell-based, murine; details: Mus musculus, Table 3
Procedure: as §1

[16] = tested on: HeLa cervix carcinoma cells; experiment: Cytostatic assay, HeLa; format: cell-based, human; details: Homo sapiens; Table 3; read-out: Cytostatic activity (μM) Hela
Procedure: as §1

[17] = tested on: Caki-1 kidney carcinoma cells; experiment: Cytostatic assay, Caki-1; format: cell-based; details: Homo sapiens, Table 3
Procedure: as §1

[18] = tested on: Caki-2 kidney carcinoma cells; experiment: Cytostatic assay, Caki-2; format: cell-based; details: Homo sapiens, Table 3
Procedure: as §1

[19] = tested on: 293T embryonic kidney cells; experiment: Cytostatic assay, 293T; format: cell-based; details: Homo sapiens, HEK-293T; Table 3
Procedure: as §1

[20] = tested on: HT29 colorectal carcinoma cells; experiment: Cytostatic assay, HT29; format: cell-based; details: Homo sapiens, HT-29; Table 3
Procedure: as §1

[21] = tested on: U87 glioma cells; experiment: Cytostatic assay, U87; format: cell-based; details: Homo sapiens, U-87 MG; Table 3
Procedure: as §1

[22] = tested on: HEL embryonic lung fibroblast cells; experiment: Cytostatic assay, HEL; format: cell-based; details: Homo sapiens, Table 3
Procedure: as §1

[23] = tested on: BAEC aortic endothelial cells; experiment: Cytostatic assay, BAEC; format: cell-based, bovine; details: Bos taurus, Table 3
Procedure: as §1

[24] = tested on: PC3 (rega) prostate cancer cells; experiment: Cytostatic assay, PC3 (rega); format: cell-based; details: Table 4
Procedure: as §1

[25] = tested on: BPH-1 (UZ); experiment: Cytostatic assay, BPH-1 (UZ); format: cell-based; details: Homo sapiens, Table 4
Procedure: as §1

[26] = tested on: DU145 (UZ) prostate cancer cells; experiment: Cytostatic assay, DU145 (UZ); format: cell-based; details: Homo sapiens, DU-145; Table 4
Procedure: as §1

[27] = tested on: PC-3 (UZ) prostate cancer cells; experiment: Cytostatic assay, PC-3 (UZ); format: cell-based; details: Table 4
Procedure: as §1

[28] = tested on: LNCaP (UZ) prostate cancer cells; experiment: Cytostatic assay, LNCaP (UZ); format: cell-based; details: Homo sapiens, Table 4
Procedure: as §1

[29] = tested on: PNT1A (UZ) prostate cells; experiment: Cytostatic assay, PNT1A (UZ); format: cell-based; details: Homo sapiens, Table 4
Procedure: as §1

[30] = tested on: 22Rv1 (UZ) prostate cancer cells; experiment: Cytostatic assay, 22Rv1 (UZ); format: cell-based; details: Homo sapiens, Table 4
Procedure: as §1

[31] = tested on: PLC/PRF/5 hepatoma cells; experiment: Cytostatic assay, PLC/PRF/5; format: cell-based; details: Homo sapiens, Table 4
Procedure: as §1

[32] = tested on: HepG2C3A hepatoma cells; experiment: Cytostatic assay, HepG2C3A; format: cell-based; details: Homo sapiens, HepG2/C3A; Table 4
Procedure: as §1

[33] = tested on: Huh-7 hepatoma cells; experiment: Cytostatic assay, Huh-7; format: cell-based; details: Homo sapiens, Table 4
Procedure: as §1

[34] = tested on: broad variety of tumor cell lines; experiment: Cytostatic assays, summary over the panel of cell lines (Tables 2-4); format: cell-based; details: range over the cell lines of Tables 2-4; read-out: IC50 range (antiproliferative activity)
Procedure: as §1

[35] = Table 1a, read-out: IC50 μM (CEM)
[36] = Table 2, read-out: Cytostatic activity (μM) CEM

IC50 [1, 35] [µM] | IC50 [1, 36] [µM] | IC50 [2] [µM] | IC50 [3] [µM] | IC50 [4] [µM] | IC50 [5] [µM] | IC50 [6] [µM] | IC50 [8] [µM] | IC50 [9] [µM] | IC50 [10] [µM] | IC50 [11] [µM] | IC50 [12] [µM] | IC50 [13] [µM] | IC50 [14] [µM] | IC50 [15] [µM] | IC50 [16] [µM] | IC50 [17] [µM] | IC50 [18] [µM] | SMILES | IC50 [7] [µM] | IC50 [19] [µM] | other results
233 | 233 ± 29 | 275 ± 89 | > 200 | ≥ 161 | > 200 | > 200 | ≥ 135 | > 200 | 124 ± 25 | > 100 | 230 ± 65 | 134 ± 69 | 117 ± 58 | 320 ± 14 | 168 ± 15 | 19 ± 18 | ≥ 200 | COc1ccc(-c2cc(C#N)c(N)s2)cc1 [TR582, 2-Amino-5-(4-methoxy-phenyl)-thiophene-3-carbonitrile] | 76 ± 35 | > 100 | IC50 [20]: > 100 µM; IC50 [21]: > 100 µM; IC50 [22]: 33 ± 0.71 µM; IC50 [23]: > 100 µM; IC50 [24]: 69 ± 21 µM; IC50 [25]: > 100 µM; IC50 [26]: > 100 µM; IC50 [27]: > 100 µM; IC50 [28]: 4.8 ± 3.4 µM; IC50 [29]: > 100 µM; IC50 [30]: 34 ± 26 µM; IC50 [31]: 49 ± 3.5 µM; IC50 [32]: ≥ 100 µM; IC50 [33]: > 100 µM; IC50 [34]: 24 to 320 µM
50 | 50 ± 6.4 | 47 ± 15 | 147 ± 66 | 38 ± 15 | ≥ 200 | 59 ± 33 | 63 ± 15 | > 200 | > 200 | > 100 | 235 ± 49 | ≥ 111 | 71 ± 30 | 164 ± 30 | 170 ± 25 | 7.7 ± 0.5 | > 200 | COC(=O)c1cc(CCc2cccnc2)sc1N [TR597, 2-Amino-5-(2-pyridin-3-yl-ethyl)-thiophene-3-carboxylic acid methyl ester] | > 100 | > 100 | IC50 [20]: > 100 µM; IC50 [21]: > 100 µM; IC50 [22]: ≥ 100 µM; IC50 [23]: > 100 µM; IC50 [24]: 6.3 ± 4.7 µM; IC50 [25]: > 100 µM; IC50 [26]: 60 ± 21 µM; IC50 [27]: 12 ± 5.5 µM; IC50 [28]: 7.4 ± 0.75 µM; IC50 [29]: > 100 µM; IC50 [30]: ≥ 100 µM; IC50 [31]: > 100 µM; IC50 [32]: > 100 µM; IC50 [33]: 78 ± 32 µM
63 | 63 ± 7.8 | 21 ± 4 | 99 | 48 ± 7.1 | ≥ 200 | 142 ± 83 | 73 ± 30 | > 200 | 116 ± 49 | 76 ± 35 | 101 ± 28 | 135 ± 92 | 72 ± 45 | 210 ± 17 | 45 ± 3 | 17 ± 13 | > 200 | COC(=O)c1cc(CCc2ccccn2)sc1N [TR596, 2-Amino-5-(2-pyridin-2-yl-ethyl)-thiophene-3-carboxylic acid methyl ester] | > 100 | > 100 | IC50 [20]: > 100 µM; IC50 [21]: > 100 µM; IC50 [22]: 43 ± 9.2 µM; IC50 [23]: > 100 µM; IC50 [24]: 8.5 ± 7.8 µM; IC50 [25]: > 100 µM; IC50 [26]: > 100 µM; IC50 [27]: 8.6 ± 0.21 µM; IC50 [28]: 4.3 ± 3.2 µM; IC50 [29]: > 100 µM; IC50 [30]: 77 ± 27 µM; IC50 [31]: > 100 µM; IC50 [32]: 69 ± 45 µM; IC50 [33]: 46 ± 34 µM
